Source: patent US6080724A, “Peptides which can be used as vectors for the intracellular addressing of active molecules” (Centre National de la Recherche Scientifique (CNRS), priority 1995, dated 2000)

Test system: E15 cortex and striatum cells
Assay: Cellular localization of biotinylated peptides by confocal microscopy (fluorescent streptavidin)
Format: cell-based
Settings: 2 h
Procedure: The cells were then washed, fixed and stained with fluorescent streptavidin.
The entry of the peptides of Table II was tested only by confocal microscopy; indeed, the absence of lysine in these peptides makes the attachments very difficult and therefore requires a very rapid observation which is incompatible with transfers onto filters or ELISA tests (multiple washes).
The E15 cortex and striatum cells are cultured on glass coverslips at a density of 25,000 cells/cm^2 for 2 days. The peptides are all added at a final concentration of 20 μM. […] The sections observed by confocal microscopy are presented in FIGS. 3 (37° C.) and 4 (4° C.). The cells which have integrated the peptide appear fluorescent, on a black background.
E15 cortex and striatum cells are cultured on glass coverslips at a density of 25,000 cells/cm^2 for 2 days. The peptides are added at a final concentration of 20 μM for peptide 43-58 and of 2 μM for the others and the cells are incubated for 2 h at 37° C. […] The results are illustrated in FIG. 6.

Substance	internalization (20 μM, 37° C. and 4° C.)	nuclear addressing (20 μM, 37° C. and 4° C.)	internalization and cytoplasmic and nuclear addressing (localization) (2 μM, 37° C., streptavidin-FITC)
Biot-Apa-Arg-Gln-Pro-Lys-Ile-Trp-Phe-Pro-Asn-Arg-Arg-Lys-Pro-Trp-Lys-Lys [3Pro]	does not prevent internalization	appears to interfere with nuclear addressing	–
Biot-Apa-Arg-Leu-Arg-Arg-Leu-Leu-Arg-Arg-Leu-Leu-Arg-Arg-Leu-Arg-Arg [L/R]	–	–	found in a fraction which is apparently of the vesicular type, probably of endocytic character
